As for `NS(=O)(=O)c1cccc(C#Cc2cnn3c(C(F)(F)F)cc(-c4ccc(Cl)cc4)nc23)c1` [Example 99, 3-[5-(4-Chloro-phenyl)-7-trifluoromethyl-pyrazolo[1,5-a]pyrimidin-3-ylethynyl]-benzenesulfonamide], the melting point (in general, the temperature of the solid-liquid transition) is 290 to 293 °C. In turn, `O=S(=O)(NCCc1ccncc1)c1ccc(C#Cc2cnn3c(C4CC4)cc(-c4ccc(Cl)cc4)nc23)s1` [Example 318, 5-[5-(4-Chloro-phenyl)-7-cyclopropyl-pyrazolo[1,5-a]pyrimidin-3-ylethynyl]-thiophene-2-sulfonic acid (2-pyridin-4-yl-ethyl)-amide] displayed a melting point of 172 to 174 °C.

`Nc1ccc(C#Cc2cnc3c(F)cc(-c4ccc(C(F)(F)F)cc4)cn23)cn1` [Example 239, 5-[8-Fluoro-6-(4-trifluoromethyl-phenyl)-imidazo[1,2-a]pyridin-3-ylethynyl]-pyridin-2-ylamine] displayed a melting point of 281 to 282 °C.

In turn, `O=S(=O)(NCc1cccnc1)c1ccc(C#Cc2cnn3c(C(F)(F)F)cc(-c4ccc(C(F)(F)F)cc4)nc23)s1` [Example 273, 5-[7-Trifluoromethyl-5-(4-trifluoromethyl-phenyl)-pyrazolo[1,5-a]pyrimidin-3-ylethynyl]-thiophene-2-sulfonic acid (pyridin-3-ylmethyl)-amide] came in with a melting point of 177 °C.

Take `CC(C)(CO)NS(=O)(=O)c1cccc(C#Cc2cnn3c(C(F)F)cc(-c4ccc(C(F)(F)F)cc4)nc23)c1` [Example 32, 3-[7-Difluoromethyl-5-(4-trifluoromethyl-phenyl)-pyrazolo[1,5-a]pyrimidin-3-ylethynyl]-N-(2-hydroxy-1,1-dimethyl-ethyl)-benzenesulfonamide]: the melting point lay in the range of 161 to 162 °C.

The compound `CC(CO)(CO)NS(=O)(=O)c1cccc(C#Cc2cnn3c(C(F)F)cc(-c4ccc(C(F)(F)F)cc4)nc23)c1` [Example 33, 3-[7-Difluoromethyl-5-(4-trifluoromethyl-phenyl)-pyrazolo[1,5-a]pyrimidin-3-ylethynyl]-N-(2-hydroxy-1-hydroxymethyl-1-methyl-ethyl)-benzene sulfonamide] registered a melting point of 172 to 174 °C.

`N#CCCNS(=O)(=O)c1cccc(C#Cc2cnn3c(C(F)(F)F)cc(-c4ccc(C(F)(F)F)cc4)nc23)c1` [Example 47, N-(2-Cyano-ethyl)-3-[7-trifluoromethyl-5-(4-trifluoromethyl-phenyl)-pyrazolo[1,5-a]pyrimidin-3-ylethynyl]-benzenesulfonamide]: the melting point lay in the range of 174 to 182 °C. With `COc1ccc(C#Cc2cnn3c(C(F)F)cc(-c4ccc(C(F)(F)F)cc4)nc23)cc1S(=O)(=O)NC(C)(C)CO` [Example 43, 5-[7-Difluoromethyl-5-(4-trifluoromethyl-phenyl)-pyrazolo[1,5-a]pyrimidin-3-ylethynyl]-N-(2-hydroxy-1,1-dimethyl-ethyl)-2-methoxy-benzenesulfonamide] the figure was 178 to 180 °C; with `Cc1cc(C#Cc2cnn3c(C(F)(F)F)cc(-c4ccc(C(F)(F)F)cc4)nc23)ccn1` [Example 2, 3-(2-Methyl-pyridin-4-ylethynyl)-7-trifluoromethyl-5-(4-trifluoromethyl-phenyl)-pyrazolo[1,5-a]pyrimidine], 206 °C. In the case of `O=S(=O)(c1cccc(C#Cc2cnn3c(C(F)(F)F)cc(-c4ccc(C(F)(F)F)cc4)nc23)c1)N1CCOCC1` [Example 129, 3-[3-(morpholine-4-sulfonyl)-phenylethynyl]-7-trifluoromethyl-5-(4-trifluoromethyl-phenyl)-pyrazolo[1,5-a]pyrimidine], the melting point is 203 to 204 °C.

The compound `CC(C)(O)c1ccc(C#Cc2cnn3c(C4CC4)cc(-c4ccc(Cl)cc4)nc23)cc1` [Example 300, 2-{4-[5-(4-Chloro-phenyl)-7-cyclopropyl-pyrazolo[1,5-a]pyrimidin-3-ylethynyl]-phenyl}-propan-2-ol] registered a melting point of 148 to 150 °C. The figure for `CN1CCN(S(=O)(=O)c2ccc(C#Cc3cnn4c(C(F)F)cc(-c5cccc(C(F)(F)F)c5)nc34)s2)CC1` [Example 248, 7-Difluoromethyl-3-[5-(4-methyl-piperazine-1-sulfonyl)-thiophen-2-ylethynyl]-5-(3-trifluoromethyl-phenyl)-pyrazolo[1,5-a]pyrimidine] is 214 °C; for `Cc1cc(-c2ccc(C(F)(F)F)cc2)nc2c(C#Cc3ccc(S(=O)(=O)NC(CO)CO)s3)cnn12` [Example 308, 5-[7-Methyl-5-(4-trifluoromethyl-phenyl)-pyrazolo[1,5-a]pyrimidin-3-ylethynyl]-thiophene-2-sulfonic acid (2-hydroxy-1-hydroxymethyl-ethyl)-amide] it is 148 to 152 °C; for `COc1ccc(C#Cc2cnn3c(C4CC4)cc(-c4ccc(C(F)(F)F)cc4)nc23)cc1S(=O)(=O)NC(C)(C)CO` [Example 81, 5-[7-Cyclopropyl-5-(4-trifluoromethyl-phenyl)-pyrazolo[1,5-a]pyrimidin-3-ylethynyl]-N-(2-hydroxy-1,1-dimethyl-ethyl)-2-methoxy-benzenesulfonamide] it is 192 to 195 °C.

Consider `Nc1ccc(C#Cc2cnn3c(C(F)(F)F)cc(-c4cccc(C(F)(F)F)c4)nc23)cn1` [Example 259, 5-[7-Trifluoromethyl-5-(3-trifluoromethyl-phenyl)-pyrazolo[1,5-a]pyrimidin-3-ylethynyl]-pyridin-2-ylamine], for which the melting point came out at 177 °C.

As to `CCOc1cccc(-c2cc(C(F)F)n3ncc(C#Cc4cccc(S(N)(=O)=O)c4)c3n2)c1` [Example 201, 3-[7-Difluoromethyl-5-(3-ethoxy-phenyl)-pyrazolo[1,5-a]pyrimidin-3-ylethynyl]-benzenesulfonamide], the melting point lay in the range of 167 to 168 °C.

`COc1cncc(C#Cc2cnn3c(C(F)(F)F)cc(-c4ccc(C(F)(F)F)cc4)nc23)c1` [Example 57, 3-(5-Methoxy-pyridin-3-ylethynyl)-7-trifluoromethyl-5-(4-trifluoromethyl-phenyl)-pyrazolo[1,5-a]pyrimidine]: the melting point was in the range of 232 to 234 °C. With `Cc1cc(-c2cc(C(F)(F)F)n3ncc(C#Cc4ccc(S(=O)(=O)NCCN(C)C)s4)c3n2)ccc1Cl` [Example 257, 5-[5-(4-Chloro-3-methyl-phenyl)-7-trifluoromethyl-pyrazolo[1,5-a]pyrimidin-3-ylethynyl]-thiophene-2-sulfonic acid (2-dimethylamino-ethyl)-amide] the figure was 179 °C; with `CC(C)(CO)NS(=O)(=O)c1cccc(C#Cc2cnn3c(C4CC4)cc(-c4ccc(Cl)cc4)nc23)c1` [Example 65, 3-[5-(4-Chloro-phenyl)-7-cyclopropyl-pyrazolo[1,5-a]pyrimidin-3-ylethynyl]-N-(2-hydroxy-1,1-dimethyl-ethyl)-benzenesulfonamide], 202 to 204 °C; with `N#Cc1cc(-c2ccc(C(F)(F)F)cc2)cn2c(C#Cc3cnc(N)nc3)cnc12` [Example 227, 3-(2-Amino-pyrimidin-5-ylethynyl)-6-(4-trifluoromethyl-phenyl)-imidazo[1,2-a]pyridine-8-carbonitrile], 290 °C. For the compound `Cc1cc(-c2cc(C(F)F)n3ncc(C#Cc4cc(S(N)(=O)=O)c(F)cc4F)c3n2)ccc1Cl` [Example 174, 5-[5-(4-Chloro-3-methyl-phenyl)-7-difluoromethyl-pyrazolo[1,5-a]pyrimidin-3-ylethynyl]-2,4-difluoro-benzenesulfonamide], the melting point worked out at 270 °C. Regarding `CC(=O)Nc1ccc(C#Cc2cnn3c(C(F)(F)F)cc(-c4ccc(C(F)(F)F)cc4)nc23)cc1` [Example 207, N-{4-[7-Trifluoromethyl-5-(4-trifluoromethyl-phenyl)-pyrazolo[1,5-a]pyrimidin-3-ylethynyl]-phenyl}-acetamide], the melting point turned out to be 238 °C. Compound `NS(=O)(=O)c1ccc(C#Cc2cnn3c(C(F)F)cc(-c4cccc(C(F)(F)F)c4)nc23)cc1` [Example 176, 4-[7-Difluoromethyl-5-(3-trifluoromethyl-phenyl)-pyrazolo[1,5-a]pyrimidin-3-ylethynyl]-benzenesulfonamide] came in with a melting point of 245 °C. The figure for `Cc1ccc(C#Cc2cnn3c(C(F)F)cc(-c4ccc(C(F)(F)F)cc4)nc23)cc1S(N)(=O)=O` [Example 60, 5-[7-Difluoromethyl-5-(4-trifluoromethyl-phenyl)-pyrazolo[1,5-a]pyrimidin-3-ylethynyl]-2-methyl-benzenesulfonamide] is 265 to 267 °C; for `Cc1cc(-c2cc(C(F)(F)F)n3ncc(C#Cc4ccc(N)nc4)c3n2)ccc1C(F)(F)F` [Example 289, 5-[5-(3-Methyl-4-trifluoromethyl-phenyl)-7-trifluoromethyl-pyrazolo[1,5-a]pyrimidin-3-ylethynyl]-pyridin-2-ylamine] it is 201 °C; for `FC(F)(F)c1cc(-c2ccc(Cl)cc2)nc2c(C#Cc3cccnc3)cnn12` [Example 21, 5-(4-Chloro-phenyl)-3-pyridin-3-ylethynyl-7-trifluoromethyl-pyrazolo[1,5-a]pyrimidine] it is 214 to 215 °C.

The compound `O=S(=O)(c1ccc(C#Cc2cnn3c(C(F)(F)F)cc(-c4cccc(C(F)(F)F)c4)nc23)s1)N(CCO)CCO` [Example 266, 5-[7-Trifluoromethyl-5-(3-trifluoromethyl-phenyl)-pyrazolo[1,5-a]pyrimidin-3-ylethynyl]-thiophene-2-sulfonic acid bis-(2-hydroxy-ethyl)-amide] gave a melting point of 129 °C. With `NS(=O)(=O)c1cccc(C#Cc2cnn3c(C4CC4)cc(-c4ccc(C(F)(F)F)cc4)nc23)c1` [Example 84, 3-[7-Cyclopropyl-5-(4-trifluoromethyl-phenyl)-pyrazolo[1,5-a]pyrimidin-3-ylethynyl]-benzenesulfonamide], the melting point lay within 262 to 264 °C. The compound `NS(=O)(=O)c1cncc(C#Cc2cnn3c(C4CC4)cc(-c4ccc(C(F)(F)F)cc4)nc23)c1` [Example 79, 5-[7-Cyclopropyl-5-(4-trifluoromethyl-phenyl)-pyrazolo[1,5-a]pyrimidin-3-ylethynyl]-pyridine-3-sulfonic acid amide] returned a melting point of 276 to 277 °C.

(Values after US8063048B2, “Acetylenyl-pyrazolo-pyrimidine derivatives” (Hoffmann-La Roche Inc., priority 2005, dated 2011).)
